Tests used:
[1] = test system: Lamina I/II spinal cord neurons; test: Lamina assay, current-clamp recordings in spinal cord slices; assay type: cell-based, rat; settings: Lamina I and II neurons
Text: Male Wistar rats (P6 to P9 for voltage-clamp and P15 to P18 for current-clamp recordings) were anaesthetized through intraperitoneal injection of Inactin (Sigma). The spinal cord was then rapidly dissected out and placed in an ice-cold solution protective sucrose solution containing (in mM): 50 sucrose, 92 NaCl, 15 D-Glucose, 26 NaHCO3, 5 KCl, 1.25 NaH2PO4, 0.5 CaCl2, 7 MgSO4, 1 kynurenic acid, and bubbled with 5% CO2/95% O2. The meninges, dura, and dorsal and ventral roots were then removed from the lumbar region of the spinal cord under a dissecting microscope. The “cleaned” lumbar region of the spinal cord was glued to the vibratome stage and immediately immersed in ice cold, bubbled, sucrose solution. For current-clamp recordings, 300 to 350 μm parasagittal slices were cut to preserve the dendritic arbour of lamina I neurons, while 350 to 400 μm transverse slices were prepared for voltage-clamped […] channel recordings. Slices were allowed to recover for 1 hour at 35° C. in Ringer solution containing (in mM): 125 NaCl, 20 D-Glucose, 26 NaHCO3, 3 KCl, 1.25 NaH2PO4, 2 CaCl2, 1 MgCl2, 1 kynurenic acid, 0.1 picrotoxin, bubbled with 5% CO2/95% O2. The slice recovery chamber was then returned to room temperature (20 to 22° C.) and all recordings were performed at this temperature.
Neurons were visualized using IR-DIC optics (Zeiss Axioskop 2 FS plus, Gottingen, Germany), and neurons from lamina I and the outer layer of lamina II were selected based on their location relative to the substantia gelatinosa layer. Neurons were patch-clamped using borosilicate glass patch pipettes with resistances of […] Current-clamp recordings of lamina I/II neurons in the intact slice, the external recording solution was the above Ringer solution, while the internal patch pipette solution contained (in mM): 140 KGluconate, 4 NaCl, 10 HEPES, 1 EGTA, 0.5 MgCl2, 4 MgATP, 0.5 Na2GTP, adjusted to pH 7.2 with 5 M KOH and to 290 mOsm with D-Mannitol (if necessary). […]

[2] = test system: Rat SNL tactile allodynia; test: L5/L6 spinal nerve ligation (SNL) Chung pain model, tactile allodynia (von Frey); assay type: in vivo; settings: for % Antiallodynia (Mean ± SD): 30 mg/kg PO, n = 7-8; for anti-allodynia effects: second repetition of the study, n=9
Text: The Spinal Nerve Ligation is an animal model representing peripheral nerve injury generating a neuropathic pain syndrome. In this model experimental animals develop the clinical symptoms of tactile allodynia and hyperalgesia. L5/L6 Spinal nerve ligation (SNL) injury was induced using the procedure of Kim and Chung (Kim et al., Pain 50:355-363 (1992)) in male Sprague-Dawley rats (Harlan; Indianapolis, Ind.) weighing 200 to 250 grams.
Anaesthesia was induced with 2% isofluorane in O2 at 2 L/min and maintained with 0.5% isofluorane in O2. Rats were then shaved and aseptically prepared for surgeries. A 2 cm paraspinal incision was made at the level of L4-S2. L4/L5 was exposed by removing the transverse process above the nerves with a small rongeur. The L5 spinal nerve is the larger of the two visible nerves below the transverse process and lies closest to the spine. The L6 spinal nerve is located beneath the corner of the slope bone. A home-made glass Chung rod was used to hook L5 or L6 and a pre-made slip knot of 4.0 silk suture was placed on the tip of the rod just above the nerve and pulled underneath to allow for the tight ligation. The L5 and L6 spinal nerves were tightly ligated distal to the dorsal root ganglion. The incision was closed, and the animals were allowed to recover for 5 days.
Sham control rats underwent the same operation and handling as the experimental animals, but without SNL.
Prior to initiating drug delivery, baseline behavioural testing data is obtained. At selected times after infusion of the Test or Control Article behavioural data can then be collected again.
The assessment of tactile allodynia consisted of measuring the withdrawal threshold of the paw ipsilateral to the site of nerve injury in response to probing with a series of calibrated von Frey filaments (innocuous stimuli). Animals were acclimated to the suspended wire-mesh cages for 30 min before testing. Each von Frey filament was applied perpendicularly to the plantar surface of the ligated paw of rats for 5 sec. A positive response was indicated by a sharp withdrawal of the paw. For rats, the first testing filament is 4.31. Measurements were taken before and after administration of test articles. […] The protocol was repeated until three changes in behaviour were determined (“up and down” method) (Chaplan et al., J. Neurosci. Methods 53:55-63 (1994)). The 50% paw withdrawal threshold was determined as (10^[Xf+kδ])/10,000, where Xf=the value of the last von Frey filament employed, k=Dixon value for the positive/negative pattern, and δ=the logarithmic difference between stimuli. The cut-off values for rats were no less than 0.2 g and no higher than 15 g (5.18 filament); for mice no less than 0.03 g and no higher than 2.34 g (4.56 filament). A significant drop of the paw withdrawal threshold compared to the pre-treatment baseline is considered tactile allodynia.

[3] = test system: 6 Hz psychomotor seizure; test: 6 Hz psychomotor seizure model of partial epilepsy; assay type: in vivo, mice; parameters: concentration or dose not given beside the values
Text: Compounds can also be evaluated for the protection against seizures induced by a 6 Hz, 0.2 ms rectangular pulse width of 3 s duration, at a stimulus intensity of 32 mA (CC97) applied to the cornea of male CF1 mice (20-30 g) according to procedures described by Barton et al, “Pharmacological Characterization of the 6 Hz Psychomotor Seizure Model of Partial Epilepsy,” Epilepsy Res. 47(3):217-27 (2001). Seizures are characterised by the expression of one or more of the following behaviours: stun, forelimb clonus, twitching of the vibrissae and Straub-tail immediately following electrical stimulation.

Compound | % Spike Change Mean [1] [%] | % Antiallodynia (Mean ± SD) ([2]; 1 h) [%] | % Antiallodynia (Mean ± SD) ([2]; 4 h) [%] | anti-allodynia effects ([2]; 1 hr) [%] | anti-allodynia effects ([2]; 2 hr) [%] | anti-allodynia effects ([2]; 4 hr) [%] | Epilepsy 6 Hz (% Protected) ([3]; 0.25 hr) [%] | Epilepsy 6 Hz (% Protected) ([3]; 0.5 hr) [%] | Epilepsy 6 Hz (% Protected) ([3]; 1 hr) [%] | Epilepsy 6 Hz (% Protected) ([3]; 2 hr) [%] | Epilepsy 6 Hz (% Protected) ([3]; 4 hr) [%] | Rat SNL tactile allodynia (% antiallodynia) ([2]; 1 hr) [%] | Rat SNL tactile allodynia (% antiallodynia) ([2]; 2 hr) [%] | Rat SNL tactile allodynia (% antiallodynia) ([2]; 4 hr) [%]
N[C@@H]1CCCC[C@H]1C(=O)N1CCC(CC(=O)Nc2cc(C(F)(F)F)cc(C(F)(F)F)c2)CC1 (racemic) [Compound 3, trans-2-(1-(2-aminocyclohexanecarbonyl)piperidin-4-yl)-N-(3,5-bis(trifluoromethyl)phenyl)acetamide] | −51.1 | 36 ± 19 | 4 ± 8 | 68±12 | 76±6 | 42±14 | 100 | 75 | 100 | 0 | 50 | – | – | –
N-(3,5- bis(trifluoromethyl) phenyl)-2-(1- (piperidine-3- carbonyl)piperidin-4- yl)acetamide [Compound 2] | −57.2 | – | – | – | – | – | 50 | 50 | 100 | 33 | 0 | 38 | 44 | 27
